Reference: ChEMBL document CHEMBL1201862, “PubChem BioAssay data set” (2004)
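Each compound was tested at five concentrations against cells in 96-well plates for 48 hours. Abbreviation: GI50, concentration required for 50% inhibition of growth.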 The source made the active and inactive calls. Rule as the data show it: active = GI50 up to about 1.1 µM and inactive = higher.

Key:
Assay in all cases: NCI-60 cell line screen, 48 h
KM-20L2 = system: KM-20L2
RXF 631 = system: RXF 631
HOP-18 = system: HOP-18
SNB-78 = system: SNB-78
M19-MEL = system: M19-MEL
DLD-1 = system: DLD-1
LXFL 529 = system: LXFL 529
XF498 = system: XF498
DMS-114 = system: DMS-114

Row | Compound | GI50 (KM-20L2) | GI50 (RXF 631) | GI50 (HOP-18) | GI50 (SNB-78) | GI50 (M19-MEL) | GI50 (DLD-1) | GI50 (LXFL 529) | GI50 (XF498) | GI50 (DMS-114)
1 | c1ccc2c(c1)C1=NCCN1c1ccccc1-2 | 2.92 µM (inactive) | 2.77 µM (inactive) | 2.59 µM (inactive) | 4 µM (inactive) | 3.44 µM (inactive) | 1.77 µM (inactive) | 3.06 µM (inactive) | – | –
2 | COc1ccc(S(=O)(=O)N/N=C/C(=O)O)cc1 | > 1190 µM (inactive) | – | > 1060 µM (inactive) | 830 µM (inactive) | 955 µM (inactive) | > 906 µM (inactive) | – | 8.09 µM (inactive) | 490 µM (inactive)
3 | COc1ccc(/C=C/COC(C)=O)cc1OC | > 100 µM (inactive) | – | – | > 100 µM (inactive) | > 100 µM (inactive) | – | > 100 µM (inactive) | – | > 100 µM (inactive)
4 | C[N+]1(C)C/C(=C/c2ccc(F)cc2)C(=O)/C(=C\c2ccc(F)cc2)C1 | > 100 µM (inactive) | > 100 µM (inactive) | > 100 µM (inactive) | > 100 µM (inactive) | 36.1 µM (inactive) | 30.2 µM (inactive) | 38.9 µM (inactive) | – | 22.8 µM (inactive)
5 | O=C1CCCC(O)=C1SC1=C(O)CCCC1=O | – | > 100 µM (inactive) | > 100 µM (inactive) | > 100 µM (inactive) | > 100 µM (inactive) | 35.2 µM (inactive) | – | – | –
6 | Cn1c(=O)c2nc3sc4ccccc4c(=N)n3c2n(C)c1=O | – | > 100 µM (inactive) | > 100 µM (inactive) | > 100 µM (inactive) | > 100 µM (inactive) | > 100 µM (inactive) | > 100 µM (inactive) | > 100 µM (inactive) | > 100 µM (inactive)
7 | N#CC(NNC(=O)c1ccccc1O)c1ccccc1O (configuration not stated) | 32.8 µM (inactive) | – | 4.65 µM (inactive) | 38.3 µM (inactive) | 4.45 µM (inactive) | 3.26 µM (inactive) | 18.6 µM (inactive) | – | –
8 | CC(C)(C)c1ccc2c(c1)S(=O)(=O)Nc1cccc(c1)NS(=O)(=O)c1cc(C(C)(C)C)ccc1OCCOCCO2 | – | > 100 µM (inactive) | > 100 µM (inactive) | > 100 µM (inactive) | > 100 µM (inactive) | > 100 µM (inactive) | – | – | > 100 µM (inactive)
9 | O=[N+]([O-])c1cccc(-c2oc(/C=N/c3ccccc3)c([N+](=O)[O-])c2-c2cccc([N+](=O)[O-])c2)c1 | > 100 µM (inactive) | > 100 µM (inactive) | – | > 100 µM (inactive) | > 100 µM (inactive) | > 100 µM (inactive) | > 100 µM (inactive) | – | > 100 µM (inactive)
10 | Cc1ccc([S+]([O-])c2ccccc2[N+](=O)[O-])cc1 (configuration not stated) | – | 35 µM (inactive) | – | > 100 µM (inactive) | 10 µM (inactive) | > 100 µM (inactive) | – | – | 36.5 µM (inactive)
11 | O=P1(O)c2ccccc2Nc2cc(C(F)(F)F)ccc21 | > 100 µM (inactive) | – | > 100 µM (inactive) | > 100 µM (inactive) | > 100 µM (inactive) | > 100 µM (inactive) | > 100 µM (inactive) | > 100 µM (inactive) | > 100 µM (inactive)
12 | CC1=C(C(=O)NCc2ccccc2)C(c2ccccc2[N+](=O)[O-])C(C(=O)NCc2ccccc2)=C(C)N1 | 16.5 µM (inactive) | 15.4 µM (inactive) | 20.3 µM (inactive) | 11.8 µM (inactive) | 11.4 µM (inactive) | 6.73 µM (inactive) | 10.7 µM (inactive) | 18 µM (inactive) | 12 µM (inactive)
13 | Cc1ccc(S(=O)(=O)N/N=C(\c2nc3ccc(Cl)cc3[nH]c2=O)C(O)c2ccco2)cc1 (configuration not stated) | > 100 µM (inactive) | – | > 100 µM (inactive) | – | > 100 µM (inactive) | > 100 µM (inactive) | > 100 µM (inactive) | – | 22.3 µM (inactive)
14 | C#CCn1c(=O)[nH]c(=O)c2cccnc21 | > 100 µM (inactive) | > 100 µM (inactive) | 63.5 µM (inactive) | > 100 µM (inactive) | – | > 100 µM (inactive) | > 100 µM (inactive) | > 100 µM (inactive) | > 10 µM (inactive)
15 | Ic1ncnc2c1ncn2C1CCCO1 (configuration not stated) | > 100 µM (inactive) | – | > 100 µM (inactive) | > 100 µM (inactive) | > 100 µM (inactive) | > 100 µM (inactive) | – | > 100 µM (inactive) | > 100 µM (inactive)
16 | COc1ccc2c3ccc4c(c3n(C)c2c1)C(=O)C=CC4=O | > 100 µM (inactive) | – | 36.7 µM (inactive) | 69.2 µM (inactive) | 18.3 µM (inactive) | 15.3 µM (inactive) | 15.2 µM (inactive) | 24.4 µM (inactive) | –
17 | OC1OC2COC(c3ccccc3)OC2C(O)C1O (configuration not stated) | > 100 µM (inactive) | – | > 100 µM (inactive) | > 100 µM (inactive) | > 100 µM (inactive) | > 100 µM (inactive) | > 100 µM (inactive) | > 100 µM (inactive) | > 100 µM (inactive)
18 | CCOC(=O)C(C)(C)Oc1ccc(/C=C/C(=O)c2ccc(Cl)cc2)cc1 | 17.8 µM (inactive) | 19.5 µM (inactive) | – | – | 20 µM (inactive) | 14.1 µM (inactive) | 15.8 µM (inactive) | 18.8 µM (inactive) | 17.4 µM (inactive)
19 | CCOc1ccccc1NC(=O)CCC(=O)NN | > 100 µM (inactive) | > 100 µM (inactive) | – | > 100 µM (inactive) | – | > 100 µM (inactive) | > 100 µM (inactive) | > 100 µM (inactive) | –
20 | CS(=O)(=O)C1S(=O)(=O)OCCOS1(=O)=O | > 100 µM (inactive) | > 100 µM (inactive) | 73.6 µM (inactive) | > 100 µM (inactive) | > 100 µM (inactive) | > 100 µM (inactive) | > 100 µM (inactive) | > 100 µM (inactive) | > 100 µM (inactive)
21 | O=C(O)C(CS)Nc1c2ccccc2nc2ccccc12 (configuration not stated) | 49.8 µM (inactive) | – | – | – | 57 µM (inactive) | 78.9 µM (inactive) | > 100 µM (inactive) | 24.9 µM (inactive) | 27.7 µM (inactive)
22 | CC#CCC1CCC(OCC)=CC1=O (configuration not stated) | > 100 µM (inactive) | > 100 µM (inactive) | > 100 µM (inactive) | > 100 µM (inactive) | > 100 µM (inactive) | > 100 µM (inactive) | > 100 µM (inactive) | > 100 µM (inactive) | > 100 µM (inactive)
23 | COc1ccc(Br)c(C(=O)N2CCc3ccccc32)c1N | 69.5 µM (inactive) | – | 47.9 µM (inactive) | > 100 µM (inactive) | 45.6 µM (inactive) | 42.9 µM (inactive) | 59.8 µM (inactive) | 31.9 µM (inactive) | 30.4 µM (inactive)
24 | CC(C)=CC(=O)C/C(=N\NC(N)=S)C(=O)Nc1ccc(Cl)cc1 | > 100 µM (inactive) | – | > 100 µM (inactive) | > 100 µM (inactive) | > 100 µM (inactive) | > 100 µM (inactive) | > 100 µM (inactive) | – | > 100 µM (inactive)
25 | Cc1cn(C2CC(O)C(COC(=O)c3ccccc3)O2)c(=O)[nH]c1=O (configuration not stated) | > 100 µM (inactive) | > 100 µM (inactive) | > 100 µM (inactive) | > 100 µM (inactive) | > 100 µM (inactive) | > 100 µM (inactive) | > 100 µM (inactive) | > 100 µM (inactive) | –
26 | CC(C)(C)C(=O)/C=C/c1ccc(Oc2ccccc2)cc1 | 17.2 µM (inactive) | – | 19.3 µM (inactive) | 25.5 µM (inactive) | 23.5 µM (inactive) | 15 µM (inactive) | 13.2 µM (inactive) | 15.2 µM (inactive) | –
27 | COc1cc(C2c3cc4c(cc3[C@@H](Nc3ccc(C#N)cc3)C3COC(=O)[C@H]23)OCO4)cc(OC)c1O (some centres not stated) | 2.33 µM (inactive) | – | 1.16 µM (inactive) | 3.03 µM (inactive) | – | 1.27 µM (inactive) | – | 3.2 µM (inactive) | 0.977 µM (active)
28 | CC(C)=CCCC1(C)C=Cc2c(c(C)cc3c2[nH]c2cc(O)ccc23)O1 (configuration not stated) | > 25 µM (inactive) | – | 7.36 µM (inactive) | – | > 25 µM (inactive) | > 25 µM (inactive) | > 25 µM (inactive) | > 25 µM (inactive) | > 25 µM (inactive)
